In the supplement of paper PMC13380429:

Key:
Details in all cases: 72 h
[1] = tested on: HepG2; assay: relative viability EC50 (midpoint between 100% and the lowest measured viability); higher = less toxic
[2] = tested on: Calu-3; assay: as above
[3] = tested on: Vero E6; assay: as above
[4] = tested on: U2OS; assay: as above
[5] = tested on: Caco-2; assay: as above
[6] = tested on: HepG2; assay: cell viability relative to DMSO; higher = less toxic
[7] = tested on: Calu-3; assay: as above
[8] = tested on: Vero E6; assay: as above
[9] = tested on: U2OS; assay: as above
[10] = tested on: Caco-2; assay: as above
[11] = tested on: HepG2; assay: drug sensitivity score (DSS) for viability; higher = more toxic; extreme values may be limits of the assay
[12] = tested on: Calu-3; assay: as above
[13] = tested on: Vero E6; assay: as above
[14] = tested on: U2OS; assay: as above
[15] = tested on: Caco-2; assay: as above

Compound	relative viability EC50 [1] [µM]	relative viability EC50 [2] [µM]	relative viability EC50 [3] [µM]	relative viability EC50 [4] [µM]	relative viability EC50 [5] [µM]	cell viability ([6]; 1 nM) [%]	cell viability ([6]; 10 nM) [%]	cell viability ([6]; 100 nM) [%]	cell viability ([6]; 1000 nM) [%]	cell viability ([6]; 10000 nM) [%]	cell viability ([7]; 1 nM) [%]	cell viability ([7]; 10 nM) [%]	cell viability ([7]; 100 nM) [%]	cell viability ([7]; 1000 nM) [%]	cell viability ([7]; 10000 nM) [%]	cell viability ([8]; 1 nM) [%]	cell viability ([8]; 10 nM) [%]	cell viability ([8]; 100 nM) [%]	cell viability ([8]; 1000 nM) [%]	cell viability ([8]; 10000 nM) [%]	cell viability ([9]; 1 nM) [%]	cell viability ([9]; 10 nM) [%]	cell viability ([9]; 100 nM) [%]	cell viability ([9]; 1000 nM) [%]	cell viability ([9]; 10000 nM) [%]	cell viability ([10]; 1 nM) [%]	cell viability ([10]; 10 nM) [%]	cell viability ([10]; 100 nM) [%]	cell viability ([10]; 1000 nM) [%]	cell viability ([10]; 10000 nM) [%]	drug sensitivity score [11]	drug sensitivity score [12]	drug sensitivity score [13]	drug sensitivity score [14]	drug sensitivity score [15]
COc1nc(C)nc(Cl)c1NC1=NCCN1 [moxonidine]	> 10	> 10	> 10	> 10	> 10	103	101	99.3	104	95.5	96.2	93.5	90	101	97.5	102	100	93.2	94.5	106	98.7	101	97.1	102	99.3	97.1	95.6	95.8	105	88.7	0	0	0	0	0
CC[C@@H](Nc1c(Nc2cccc(C(=O)N(C)C)c2O)c(=O)c1=O)c1ccc(C)o1 [navarixin]	> 10	> 10	> 10	> 10	> 10	97.9	87.4	93.8	94.6	99	89.2	98.3	95.1	102	105	94.9	95.3	96.6	90.2	107	93.4	102	98.3	98.4	103	95	99.3	106	99.3	91.6	0	0	0	0	0
CN1C(=O)C(Cc2c[nH]c3ccccc23)NC1=S (stereo not given) [necrostatin-1]	> 10	> 10	> 10	> 10	> 10	110	94.5	98.1	94.6	90.6	93.9	92	90.3	96.2	99	95.8	99	101	99.8	103	93.6	99.2	97.7	98.6	95.1	97.7	95.8	107	110	100	0	0	0	0	0
CCOC(=O)c1ccc(N(C)c2csc(-c3ccccc3)n2)cc1 [neuropathiazol]	> 10	> 10	> 10	> 10	> 10	86.2	97.3	103	107	93.2	92.4	97.2	108	110	97.3	108	103	96.2	101	96.3	101	97.2	98.8	99.5	99.3	92.9	94.1	80.2	97.3	104	0	0	0	0	0
COC(=O)C1=C(C)NC(C)=C(C(=O)OCCN(C)Cc2ccccc2)C1c1cccc([N+](=O)[O-])c1 (stereo not given) [nicardipine]	> 10	> 10	> 10	> 10	> 10	91.6	100	141	109	95.4	91.7	91.5	94.1	90.2	90.2	93.2	106	98.2	103	96.9	96.5	103	95.5	98.1	91.3	102	120	97.9	84.1	84.8	0	0	0	0	1.9
Cc1cc2c(s1)Nc1ccccc1N=C2N1CCN(C)CC1 [olanzapine]	> 10	> 10	> 10	> 10	> 10	118	110	121	98.5	106	99	102	104	104	108	96.4	96.8	96	92.7	104	93.1	99	95.2	99.6	102	97.8	91.5	98.1	99.1	103	0	0	0	0	0
CCCc1nc(C(C)(C)O)c(C(=O)O)n1Cc1ccc(-c2ccccc2-c2nnn[nH]2)cc1 [olmesartan]	> 10	> 10	> 10	> 10	> 10	93.8	108	93.3	98.7	99.6	105	101	102	98	101	98.8	102	97.2	96.9	92.7	98.2	96.5	98.7	93.5	99.6	93	95.5	91.8	90.9	99.3	0	0	0	0	0
CCOC(=O)C1=C[C@@H](OC(CC)CC)[C@H](NC(C)=O)[C@@H](N)C1 [oseltamivir-phosphate]	> 10	> 10	> 10	> 10	> 10	107	98.6	98	106	107	99.4	96.9	104	103	106	95.4	93.2	99.1	92.4	103	93.4	104	97.9	97.6	102	79.7	92.2	92.6	95.9	94	0	0	0	0	0
COc1ccc(COc2cc3oc(=O)c4cc(C(C)O)ccc4c3cc2OC)cc1 (stereo not given) [palomid-529]	> 10	> 10	> 10	> 10	> 10	97.3	100	101	99.6	102	111	98.9	84.8	101	96.2	101	100	99	100	99.7	96.3	105	94.4	94	99.8	107	94.1	96.4	85.6	93.7	0	0	0	0	0.3
Cc1cc(NC(=O)NCCN2CCC(O)(Cc3ccccc3)CC2)c2ccccc2n1 [palosuran]	> 10	> 10	> 10	> 10	> 10	102	110	96.3	99.7	92.5	95.3	91.9	103	100	89.4	104	106	99.4	104	102	99.3	94.9	98	96.5	103	99.5	93.1	88.3	99.4	104	0	0	0	0	0
O=C(Oc1ccccc1)c1ccccc1O [phenyl-salicylate]	> 10	> 10	> 10	> 10	> 10	100	104	97.1	110	106	103	101	93.6	104	94.9	105	99.8	105	98.4	104	97.7	100	97.5	102	99.4	95.3	93.7	98.1	97.1	97.6	0	0	0	0	0
NC(=O)CN1CCCC1=O [piracetam]	> 10	> 10	> 10	> 10	> 10	92.1	103	98	98.5	105	110	97.7	112	109	97.9	93.3	98.3	91.7	93.3	92	100	102	100	97.7	102	102	91.2	98.7	96.6	102	0	0	0	0	0
CC12CCC(C(=O)N(CCCCN3CCN(c4ccccn4)CC3)C1=O)C2(C)C (stereo not given) [piricapiron]	> 10	> 10	> 10	> 10	> 10	106	101	101	102	97.6	100	105	101	93.2	85.9	97.2	99.8	101	93.5	104	101	103	99.1	101	95.6	87.3	99.7	96.5	98.1	93	0	0.6	0	0	0
Cc1c(C(=O)NN2CCCCC2)nn(-c2ccc(Cl)cc2Cl)c1-c1ccc(Cl)cc1 [rimonabant]	> 10	> 10	> 10	> 10	> 10	97.6	94.1	105	103	88.3	101	93.6	89.1	96.8	99.2	92.4	95	88	93.5	101	95.6	95.8	98.1	95.4	92.7	98.7	91.3	97.7	90.5	81.1	0	0	0	0	0.8
